Source: article PMC5327470, “Discovery and Optimization of Novel 5-Indolyl-7-arylimidazo[1,2-a]pyridine-8-carbonitrile Derivatives as Potent Antitubulin Agents Targeting Colchicine-binding Site” (Scientific Reports, 2017)
Entries after “also recorded” stand apart in the source; their conditions may differ.

Tests used:
[1] = system: SMMC-7721 (human liver cancer); assay: MTT antiproliferative assay, SMMC-7721; format: cell-based; conditions: 72 h, mean ± SD
Experimental: Data represent the mean values ± standard deviation (SD) of independent experiments performed in triplicate.
All of the cells were purchased from the American Type Culture Collection (ATCC, Manassas, VA).
The antiproliferative activities in vitro of Crolibulin and all the target compounds were determined by an MTT assay. Briefly, cells were seeded into 96-well plates at a density of 1–3 × 10^4/well (depends on the cell growth rate). 24 h later, triplicate wells were treated with media and the agents. […] After 4 h of incubation, the medium with MTT was removed, and […] of DMSO was added to each well. The plates were gently agitated until the purple formazan crystals were dissolved, and the OD490 was determinedusing a microplate reader (MK3, Thermo, Germany). The data were calculated and plotted as the percent viability compared to the control.

[2] = system: MKN-45 (human gastric cancer); assay: MTT antiproliferative assay, MKN-45; format: cell-based; conditions: 72 h, mean ± SD, read-out: IC50 (μM) ±SD MKN45
Experimental: (§1) To evaluate the antiproliferative activity, all synthesized derivatives (5a–5v and 7a–7h) were investigated for their activity in vitro against a panel of cancer cell lines including HT-29 (human colon cancer), H460 (human lung cancer), A549 (human lung carcinoma), MKN-45 (human gastric cancer) and SMMC-7721 (human liver cancer) by MTT assay. CA-4 and Crolibulin were served as positive control, and the results expressed as half-maximal inhibitory concentration (IC50). IC50 values are the concentrations that cause 50% inhibition of cancer cell growth (μM). Data represent the mean values ± standard deviation (SD) of independent experiments performed in triplicate.
(§2) Cell lines and culture conditions.The human colon carcinoma cell line HT-29, the human pulmonary carcinoma cell line A549, the human gastric carcinoma cell line MKN-45, the human breast cancer cell line MDA-MB-231 and human heptocarcinoma cellline SMMC-7721were cultured in RPMI-1640 mediumcontaining 10% FBS, 100 U/mL streptomycin and 100 U/mL penicillinat 37 °C in humidified atmosphere with 5% CO2. All of the cells were purchased from the American Type Culture Collection (ATCC, Manassas, VA).
(§3) The antiproliferative activities in vitro of Crolibulin and all the target compounds were determined by an MTT assay. Briefly, cells were seeded into 96-well plates at a density of 1–3 × 10^4/well (depends on the cell growth rate). 24 h later, triplicate wells were treated with media and the agents. After 72 h ofincubation at 37 °C in 5% CO2, the drug containing medium wasremoved and replaced by […] of fresh medium with 5 mg/mLMTT solution. After 4 h of incubation, the medium with MTT was removed, and […] of DMSO was added to each well. The plates were gently agitated until the purple formazan crystals were dissolved, and the OD490 was determinedusing a microplate reader (MK3, Thermo, Germany). The data were calculated and plotted as the percent viability compared to the control. The 50% inhibitory concentration (IC50) was defined as theconcentration that reduced the absorbance of the untreated wells by 50% of the vehicle in the MTT assay.

[3] = system: HT-29 (human colon cancer); assay: MTT antiproliferative assay, HT-29; format: cell-based; conditions: Homo sapiens, HT-29; MTT, 72 h, mean ± SD; read-out: IC50 (μM) ±SD HT29
Experimental: as §1, §2, §3

[4] = system: A549 (human lung carcinoma); assay: MTT antiproliferative assay, A549; format: cell-based; conditions: 72 h, mean ± SD
Experimental: as §1, §2, §3

[5] = system: human fetal hepatocyte line L02; assay: MTT assay on normal cell line L02; format: cell-based; conditions: non-cancer cell line
Experimental: The drug candidate potency depends not only on its cytotoxicity in malignant cells, but also on its relative lack of toxicity toward normal cells.
as §3

H460 (human lung cancer) = assay: MTT antiproliferative assay, H460; format: cell-based; conditions: Homo sapiens, MTT, 72 h, mean ± SD
Experimental: as §1, §3

[6] = system: microtubules in HT-29 cells; assay: Immunofluorescence staining of microtubule network; format: cell-based, human; conditions: 12 h, anti-α-tubulin immunostaining
Experimental: After incubation, cells were fixed, reacted with monoclonal anti-tubulin antibody at 4 °C overnight and then reacted with fluorescein isothiocyanate (FITC) conjugated secondary antibody, DAPI was used for nuclear counter-staining, the cellular microtubules were observed under fluorescence microscope (scale bar = 20 μm).
The HT-29 cells were seeded at 1 × 10^4 per well on a 24 wellplate and grown for 24 h. […] Cells in the control group were treated with culture medium. The control and treated cells were fixed with 4% formaldehydein PBS for 30 min at −20 °C, then washed twice with PBS and permeabilized with 0.1% (v/v) Triton X-100 in PBS for 5 min. Then, the cells were blocked with 3% bovine serum albumin(BSA) in PBS for 30 min. The primary α-tubulin antibody wasdiluted (1:100) with 2% BSA in PBS and incubated overnight at 4 °C. The cells were washed with PBS to remove unbound primaryantibody and then cells were incubated with FITC-conjugated antimousesecondary antibody, diluted (1:100) with 2% BSA in PBS, for 2 h at 37 °C. The cells were washed with PBS to remove unbound secondary antibody, nucleus was stained with 4,6-diamino-2-phenolindoldihydrochloride (DAPI) and then, immunofluorescencewas detected using a fluorescence microscope (Olympus,Tokyo, Japan).

[7] = system: HT-29, H460, A549, MKN-45 and SMMC-7721 cell lines; assay: MTT antiproliferative assay, panel of five cancer cell lines; format: cell-based, human; conditions: ratio of IC50 values
Experimental: IC50 values are the concentrations that cause 50% inhibition of cancer cell growth (μM). Data represent the mean values ± standard deviation (SD) of independent experiments performed in triplicate.
as §3

tubulin, colchicine site = assay: Colchicine competition (competitive tubulin-binding) assay; conditions: 0, 1.6, 5 and 15 μM, 1 h at 37 °C, then 5 μM colchicine
Experimental: Figure 6 Colchicine competition assay. […] The fluorescence was measured by Hitachi F-2500 spectrofluorometer.
Then colchicine was added to a final concentration of 5 μM[43]. Fluorescence was determined using a Hitachi F-2500 spectrofluorometer (Tokyo, Japan) at excitation wavelengths of 365 nm and emission wavelengths of 435 nm. Blank values (buffer alone) as background were subtracted from all samples. […] Taxol, not binding in the colchicine-site of tubulin, was added as a negative control.

HT-29 cells = assay: Cell cycle phase distribution by flow cytometry; format: cell-based, human; conditions: 24 h
Experimental: The structural similarities between the target compounds (5a–5v and 7a–7h) with CA-4 and Crolibulin, as well as the promising cytotoxic activity led us to hypothesize that these compounds exert their antiproliferative properties through inhibition of tubulin dynamics, thus inducing mitotic arrest in cancer cells. […] Controls were treated with drug vehicle DMSO. […] And this effect is characteristic of antimitotic agents disrupting microtubule assembly.
Data are expressed as the mean ± SEM.
For flow cytometric analysis of DNA content, cells inexponential growth were treated with compound for 24 h[41]. The cells treated with compoundwere collected, washed twice with PBS, and then fixed with 75% alcohol overnight. Then, the cells were washed with PBS and resuspended in 100 μL of PBS, 200 mg/mL RNase wasadded for 30 min to eliminate the interference of RNA, and 20 mL/L propidium iodide (PI; Sigma) was added for 30 min.Then, the cells were washed, and the DNA content wasdetected by flow cytometer (BD Accuri C6).

Structure (SMILES) | IC50 [1] [µM] | IC50 [2] [µM] | melting point [°C] | IC50 [3] [µM] | IC50 [4] [µM] | effect on normal cell L02 [5] | IC50 (H460 (human lung cancer); NCI-H460, 72 h) [µM] | IC50 (H460 (human lung cancer); NCI-H460) [µM] | effect on microtubule network ([6]; HT-29, 20 nM) | fold increased potency over 5a (H), 5c (3-OMe) and 5d (4-OMe) [7] | effect on intrinsic fluorescence of colchicine-tubulin complex (tubulin, colchicine site) | percent of cells in G1 phase (HT-29 cells; HT-29, 20 nM) [%] | percent of cells in G1 phase (HT-29 cells; HT-29, 200 nM) [%] | percent of cells in G2 (G2/M) phase (HT-29 cells; HT-29, 200 nM) [%] | percent of cells in G1 phase (HT-29 cells; HT-29, 1000 nM) [%] | percent of cells in G2 (G2/M) phase (HT-29 cells; HT-29, 1000 nM) [%] | effect on microtubule network ([6]; HT-29, 32.5 nM)
Cc1ccccc1-c1cc(-c2c[nH]c3ccccc23)n2ccnc2c1C#N [5b, 5-(1H-indol-3-yl)-7-(o-tolyl)imidazo[1,2-a]pyridine-8-carbonitrile] | 0.82 ± 0.06 | 1.52 ± 0.15 | 334.3 to 335.1 | 0.16 ± 0.04 | 0.23 ± 0.04 | negligible effects | 46.3 ± 5.26 | – | – | – | – | – | – | – | – | – | –
COc1ccc(/C=C\c2cc(OC)c(OC)c(OC)c2)cc1O [CA-4, Combretastatin A-4, reference compound] | 1.92 ± 0.11 | 0.11 ± 0.02 | – | 0.05 ± 0.01 | 0.43 ± 0.053 | – | – | 0.08 ± 0.01 | cellular microtubule depolymerization | – | – | – | – | – | – | – | –
N#Cc1c(-c2ccccc2Cl)cc(-c2c[nH]c3ccccc23)n2ccnc12 [5f, 7-(2-chlorophenyl)-5-(1H-indol-3-yl)imidazo[1,2-a]pyridine-8-carbonitrile] | 13.8 ± 2.23 | 0.38 ± 0.06 | 296.7 to 300.1 | 0.07 ± 0.004 | 0.95 ± 0.07 | negligible effects | 0.18 ± 0.08 | – | – | at least 1.7 fold | – | – | – | – | – | – | –
N#Cc1c(-c2ccccc2)cc(-c2c[nH]c3ccccc23)n2ccnc12 [5a, 5-(1H-indol-3-yl)-7-phenylimidazo[1,2-a]pyridine-8-carbonitrile] | 89.4 ± 2.6 | 79.7 ± 8.1 | 338.3 to 339.7 | 0.3 ± 0.04 | 86.4 ± 7.33 | – | 2.79 ± 0.52 | – | – | – | – | – | – | – | – | – | –
N#Cc1c(-c2ccccc2F)cc(-c2c[nH]c3ccccc23)n2ccnc12 [5e, 7-(2-fluorophenyl)-5-(1H-indol-3-yl)imidazo[1,2-a]pyridine-8-carbonitrile] | 26.2 ± 2.82 | 0.96 ± 0.06 | 304.6 to 308.8 | 0.09 ± 0.01 | 5.67 ± 0.23 | – | 1.16 ± 0.12 | – | – | at least 1.7 fold | – | – | – | – | – | – | –
N#Cc1c(-c2ccc(F)cc2Cl)cc(-c2c[nH]c3ccccc23)n2ccnc12 [5k, 7-(2-chloro-4-fluorophenyl)-5-(1H-indol-3-yl)imidazo[1,2-a]pyridine-8-carbonitrile] | – | 0.14 ± 0.03 | 307.9 to 317.3 | 0.02 ± 0.001 | 0.57 ± 0.08 | negligible effects; also recorded: minimal | 0.05 ± 0.008 | – | – | – | decreased the intrinsic colchicine fluorescence in a dose-dependent manner | 62.84 | 65.76 | 14.21 | 24.62 | 64.07 | cellular microtubule depolymerization
